Test system: hyaluronic acid
Details: topical application, mice
Experimental: The dorsal skin of mice (ddy strain/5 week old/male) was clipped with electric clippers and a Vaseline based retinoic acid preparation (containing 0.1% retinoic acid) was applied to the clipped area 10 mg/cm^2 per day for 4 consecutive days.

Structure (SMILES): CC1=C(/C=C/C(C)=C/C=C/C(C)=C/C(=O)O)C(C)(C)CCC1 [retinoic acid, all-trans retinoic acid]
- colloidal iron staining of basal cells and prickle cells of the epithelium (production of hyaluronic acid): less significant

Source: patent US20070258926A1, “Composition containing retinoic acid nanoparticles coated with inorganic salt of polyvalent metal” (LTT BIO-PHARMA CO., LTD., priority 2003, published 2007)
